In the NIST ThermoML archive (doi:10.1021/acs.jced.5b00934):
± gives the expanded uncertainty stated by the source.

Conditions: Liquid, Vibrating tube method

`CC(C)(C)O` [2-methylpropan-2-ol] gave a mass density (353.15 K, 99 kPa) of 719 ± 0.8 kg/m3, a mass density (353.15 K, 300 kPa) of 719.3 ± 0.8 kg/m3 and a mass density (353.15 K, 501 kPa) of 719.6 ± 0.8 kg/m3. For the same compound, the mass density (353.15 K, 897 kPa) was 720.2 ± 0.8 kg/m3, the mass density (353.15 K, 1000 kPa) was 720.3 ± 0.8 kg/m3 and the mass density (353.15 K, 2000 kPa) was 721.8 ± 0.8 kg/m3. The mass density (353.15 K, 2999 kPa) was 723.2 ± 0.8 kg/m3, the mass density (353.15 K, 4999 kPa) was 726.1 ± 0.8 kg/m3 and the mass density (353.15 K, 6999 kPa) was 728.8 ± 0.8 kg/m3. The mass density (353.15 K, 8998 kPa) was 731.4 ± 0.8 kg/m3, the mass density (353.15 K, 10003 kPa) was 732.6 ± 0.8 kg/m3 and the mass density (353.15 K, 11997 kPa) was 735.1 ± 0.8 kg/m3. The mass density (353.15 K, 15001 kPa) was 738.7 ± 0.8 kg/m3, the mass density (353.15 K, 17999 kPa) was 742.1 ± 0.9 kg/m3 and the mass density (353.15 K, 20000 kPa) was 744.2 ± 0.9 kg/m3. It also gave a mass density (353.15 K, 21999 kPa) of 746.4 ± 0.9 kg/m3, a mass density (353.15 K, 24997 kPa) of 749.4 ± 0.9 kg/m3 and a mass density (353.15 K, 27999 kPa) of 752.5 ± 0.9 kg/m3. For the same compound, the mass density (353.15 K, 30004 kPa) was 754.4 ± 0.9 kg/m3, the mass density (353.15 K, 32003 kPa) was 756.3 ± 0.9 kg/m3 and the mass density (353.15 K, 32985 kPa) was 757.1 ± 0.9 kg/m3. For the same compound, the mass density (353.15 K, 33002 kPa) was 757.2 ± 0.9 kg/m3, the mass density (353.15 K, 34000 kPa) was 758.1 ± 0.9 kg/m3 and the mass density (353.15 K, 35004 kPa) was 759 ± 0.9 kg/m3. It also gave a mass density (353.15 K, 38477 kPa) of 762.2 ± 0.9 kg/m3, a mass density (353.15 K, 40002 kPa) of 763.4 ± 0.9 kg/m3 and a mass density (353.15 K, 42035 kPa) of 765.1 ± 0.9 kg/m3. It also gave a mass density (353.15 K, 45022 kPa) of 767.6 ± 0.9 kg/m3, a mass density (353.15 K, 48092 kPa) of 770.1 ± 1 kg/m3 and a mass density (353.15 K, 49989 kPa) of 771.5 ± 1 kg/m3. It also gave a mass density (358.15 K, 103 kPa) of 712.8 ± 0.8 kg/m3, a mass density (358.15 K, 293 kPa) of 713.1 ± 0.8 kg/m3 and a mass density (358.15 K, 498 kPa) of 713.4 ± 0.8 kg/m3. For the same compound, the mass density (358.15 K, 899 kPa) was 714 ± 0.8 kg/m3, the mass density (358.15 K, 1003 kPa) was 714.2 ± 0.8 kg/m3 and the mass density (358.15 K, 2008 kPa) was 715.7 ± 0.8 kg/m3. It also gave a mass density (358.15 K, 3003 kPa) of 717.3 ± 0.8 kg/m3, a mass density (358.15 K, 5003 kPa) of 720.2 ± 0.8 kg/m3 and a mass density (358.15 K, 7003 kPa) of 723 ± 0.8 kg/m3. For the same compound, the mass density (358.15 K, 9001 kPa) was 725.8 ± 0.8 kg/m3, the mass density (358.15 K, 9998 kPa) was 727.1 ± 0.8 kg/m3 and the mass density (358.15 K, 12010 kPa) was 729.7 ± 0.8 kg/m3. The mass density (358.15 K, 14999 kPa) was 733.3 ± 0.8 kg/m3, the mass density (358.15 K, 18040 kPa) was 736.9 ± 0.9 kg/m3 and the mass density (358.15 K, 19997 kPa) was 739.1 ± 0.9 kg/m3. For the same compound, the mass density (358.15 K, 21995 kPa) was 741.3 ± 0.9 kg/m3, the mass density (358.15 K, 25017 kPa) was 744.5 ± 0.9 kg/m3 and the mass density (358.15 K, 27994 kPa) was 747.6 ± 0.9 kg/m3. The mass density (358.15 K, 29991 kPa) was 749.6 ± 0.9 kg/m3, the mass density (358.15 K, 32001 kPa) was 751.5 ± 0.9 kg/m3 and the mass density (358.15 K, 32997 kPa) was 752.5 ± 0.9 kg/m3. It also gave a mass density (358.15 K, 33015 kPa) of 752.5 ± 0.9 kg/m3, a mass density (358.15 K, 34056 kPa) of 753.5 ± 0.9 kg/m3 and a mass density (358.15 K, 35075 kPa) of 754.4 ± 0.9 kg/m3. The mass density (358.15 K, 37998 kPa) was 757 ± 0.9 kg/m3, the mass density (358.15 K, 40001 kPa) was 758.8 ± 0.9 kg/m3 and the mass density (358.15 K, 42007 kPa) was 760.6 ± 0.9 kg/m3. For the same compound, the mass density (358.15 K, 45002 kPa) was 763.1 ± 0.9 kg/m3, the mass density (358.15 K, 47995 kPa) was 765.5 ± 1 kg/m3 and the mass density (358.15 K, 50001 kPa) was 767 ± 1 kg/m3. The mass density (363.15 K, 299 kPa) was 706.4 ± 0.8 kg/m3, the mass density (363.15 K, 502 kPa) was 706.8 ± 0.8 kg/m3 and the mass density (363.15 K, 901 kPa) was 707.4 ± 0.8 kg/m3. For the same compound, the mass density (363.15 K, 1002 kPa) was 707.6 ± 0.8 kg/m3, the mass density (363.15 K, 2001 kPa) was 709.2 ± 0.8 kg/m3 and the mass density (363.15 K, 3005 kPa) was 710.8 ± 0.8 kg/m3. For the same compound, the mass density (363.15 K, 5002 kPa) was 713.9 ± 0.8 kg/m3, the mass density (363.15 K, 7023 kPa) was 716.9 ± 0.8 kg/m3 and the mass density (363.15 K, 9001 kPa) was 719.7 ± 0.8 kg/m3. It also gave a mass density (363.15 K, 10009 kPa) of 721.1 ± 0.8 kg/m3, a mass density (363.15 K, 12038 kPa) of 723.8 ± 0.8 kg/m3 and a mass density (363.15 K, 14998 kPa) of 727.6 ± 0.8 kg/m3. For the same compound, the mass density (363.15 K, 18000 kPa) was 731.3 ± 0.9 kg/m3, the mass density (363.15 K, 20033 kPa) was 733.7 ± 0.9 kg/m3 and the mass density (363.15 K, 22005 kPa) was 735.9 ± 0.9 kg/m3. It also gave a mass density (363.15 K, 25000 kPa) of 739.2 ± 0.9 kg/m3, a mass density (363.15 K, 28009 kPa) of 742.4 ± 0.9 kg/m3 and a mass density (363.15 K, 30011 kPa) of 744.4 ± 0.9 kg/m3. The mass density (363.15 K, 32033 kPa) was 746.5 ± 0.9 kg/m3, the mass density (363.15 K, 32982 kPa) was 747.4 ± 0.9 kg/m3 and the mass density (363.15 K, 33012 kPa) was 747.4 ± 0.9 kg/m3. For the same compound, the mass density (363.15 K, 34035 kPa) was 748.4 ± 0.9 kg/m3, the mass density (363.15 K, 34999 kPa) was 749.3 ± 0.9 kg/m3 and the mass density (363.15 K, 37998 kPa) was 752.1 ± 0.9 kg/m3. For the same compound, the mass density (363.15 K, 39147 kPa) was 753.2 ± 0.9 kg/m3, the mass density (363.15 K, 40009 kPa) was 753.9 ± 0.9 kg/m3 and the mass density (363.15 K, 41998 kPa) was 755.7 ± 0.9 kg/m3. For the same compound, the mass density (363.15 K, 44999 kPa) was 758.4 ± 0.9 kg/m3, the mass density (363.15 K, 47996 kPa) was 760.9 ± 1 kg/m3 and the mass density (363.15 K, 49998 kPa) was 762.5 ± 1 kg/m3. For the same compound, the mass density (363.15 K, 52002 kPa) was 764.2 ± 1 kg/m3, the mass density (363.15 K, 55003 kPa) was 766.6 ± 1 kg/m3 and the mass density (363.15 K, 57998 kPa) was 768.9 ± 1 kg/m3. It also gave a mass density (363.15 K, 59999 kPa) of 770.4 ± 1 kg/m3 and a mass density (363.16 K, 38458 kPa) of 752.5 ± 0.9 kg/m3.
